Measured values published in patent US6620821B2, “HMG-CoA reductase inhibitors and method” (Bristol-Myers Squibb Company, priority 2000, dated 2003).

CC(C)c1nc2c(c(-c3ccc(F)cc3)c1CC[C@@H](O)C[C@@H](O)CC(=O)[O-])CCCc1ccccc1-2.[Na+]
melting point: 253 to 254 °C
